# Columns and labels:
# Type in all cases: functional
# IGROV-1 = assay: Growth inhibition of human IGROV-1 cells measured after 48 hrs by SRB assay
# Hs-578T = assay: Growth inhibition of human Hs-578T cells measured after 48 hrs by SRB assay
# BT-549 = assay: Growth inhibition of human BT-549 cells measured after 48 hrs by SRB assay
# SW-620 = assay: Growth inhibition of human SW-620 cells measured after 48 hrs by SRB assay
# SNB-75 = assay: Growth inhibition of human SNB-75 cells measured after 48 hrs by SRB assay
# NCI-H522 = assay: Growth inhibition of human NCI-H522 cells measured after 48 hrs by SRB assay
# LOX IMVI = assay: Growth inhibition of human LOX IMVI cells measured after 48 hrs by SRB assay
# A549 = assay: Growth inhibition of human A549 cells measured after 48 hrs by SRB assay
# SR = assay: Growth inhibition of human SR cells measured after 48 hrs by SRB assay
# SK-MEL-28 = assay: Growth inhibition of human SK-MEL-28 cells measured after 48 hrs by SRB assay
# NCI/ADR-RES = assay: Growth inhibition of human NCI/ADR-RES cells measured after 48 hrs by SRB assay
# HOP-92 = assay: Growth inhibition of human HOP-92 cells measured after 48 hrs by SRB assay
# ACHN = assay: Growth inhibition of human ACHN cells measured after 48 hrs by SRB assay
# HT-29 = assay: Growth inhibition of human HT-29 cells measured after 48 hrs by SRB assay
# CAKI-1 = assay: Growth inhibition of human CAKI-1 cells measured after 48 hrs by SRB assay
# UACC-62 = assay: Growth inhibition of human UACC-62 cells measured after 48 hrs by SRB assay
# A498 = assay: Growth inhibition of human A498 cells measured after 48 hrs by SRB assay
# K562 = assay: Growth inhibition of human K562 cells measured after 48 hrs by SRB assay
# Malme-3M = assay: Growth inhibition of human Malme-3M cells measured after 48 hrs by SRB assay
# SK-MEL-2 = assay: Growth inhibition of human SK-MEL-2 cells measured after 48 hrs by SRB assay
# HCC 2998 = assay: Growth inhibition of human HCC 2998 cells measured after 48 hrs by SRB assay
# KM12 = assay: Growth inhibition of human KM12 cells measured after 48 hrs by SRB assay
# 786-0 = assay: Growth inhibition of human 786-0 cells measured after 48 hrs by SRB assay
# MOLT-4 = assay: Growth inhibition of human MOLT-4 cells measured after 48 hrs by SRB assay
# OVCAR-8 = assay: Growth inhibition of human OVCAR-8 cells measured after 48 hrs by SRB assay
# TK-10 = assay: Growth inhibition of human TK-10 cells measured after 48 hrs by SRB assay
# T47D = assay: Growth inhibition of human T47D cells measured after 48 hrs by SRB assay
# MDA-MB-468 = assay: Growth inhibition of human MDA-MB-468 cells measured after 48 hrs by SRB assay
# SF-268 = assay: Growth inhibition of human SF-268 cells measured after 48 hrs by SRB assay
# SF-539 = assay: Growth inhibition of human SF-539 cells measured after 48 hrs by SRB assay
# UACC-257 = assay: Growth inhibition of human UACC-257 cells measured after 48 hrs by SRB assay
# MCF7 = assay: Growth inhibition of human MCF7 cells measured after 48 hrs by SRB assay
# U-251 = assay: Growth inhibition of human U-251 cells measured after 48 hrs by SRB assay
# PC-3 = assay: Growth inhibition of human PC-3 cells measured after 48 hrs by SRB assay
# NCI-H23 = assay: Growth inhibition of human NCI-H23 cells measured after 48 hrs by SRB assay
# HCT-116 = assay: Growth inhibition of human HCT-116 cells measured after 48 hrs by SRB assay
# M14 = assay: Growth inhibition of human M14 cells measured after 48 hrs by SRB assay
# SK-MEL-5 = assay: Growth inhibition of human SK-MEL-5 cells measured after 48 hrs by SRB assay
# NCI-H460 = assay: Growth inhibition of human NCI-H460 cells measured after 48 hrs by SRB assay
# RXF 393 = assay: Growth inhibition of human RXF 393 cells measured after 48 hrs by SRB assay
# HCT-15 = assay: Growth inhibition of human HCT-15 cells measured after 48 hrs by SRB assay
# HOP-62 = assay: Growth inhibition of human HOP-62 cells measured after 48 hrs by SRB assay
# NCI-H322M = assay: Growth inhibition of human NCI-H322M cells measured after 48 hrs by SRB assay
# SN12C = assay: Growth inhibition of human SN12C cells measured after 48 hrs by SRB assay
# OVCAR-5 = assay: Growth inhibition of human OVCAR-5 cells measured after 48 hrs by SRB assay
# NCI-H226 = assay: Growth inhibition of human NCI-H226 cells measured after 48 hrs by SRB assay
# OVCAR-3 = assay: Growth inhibition of human OVCAR-3 cells measured after 48 hrs by SRB assay
# UO-31 = assay: Growth inhibition of human UO-31 cells measured after 48 hrs by SRB assay
# MDA-MB-435 = assay: Growth inhibition of human MDA-MB-435 cells measured after 48 hrs by SRB assay
# COLO 205 = assay: Growth inhibition of human COLO 205 cells measured after 48 hrs by SRB assay
# HL-60 = assay: Growth inhibition of human HL-60 cells measured after 48 hrs by SRB assay
# SK-OV-3 = assay: Growth inhibition of human SK-OV-3 cells measured after 48 hrs by SRB assay
# CCRF-CEM = assay: Growth inhibition of human CCRF-CEM cells measured after 48 hrs by SRB assay
# SNB-19 = assay: Growth inhibition of human SNB-19 cells measured after 48 hrs by SRB assay
# MDA-MB-231 = assay: Growth inhibition of human MDA-MB-231 cells measured after 48 hrs by SRB assay
# DU-145 = assay: Growth inhibition of human DU-145 cells measured after 48 hrs by SRB assay
# SF-295 = assay: Growth inhibition of human SF-295 cells measured after 48 hrs by SRB assay
# RPMI-8226 = assay: Growth inhibition of human RPMI-8226 cells measured after 48 hrs by SRB assay
compound,measurement,setting,value
C[C@]12C[C@H](O)[C@H]3[C@@H](CCC4=C[C@@H](O[C@@H]5O[C@H](CO)[C@@H](O)[C@H](O)[C@H]5O)CC[C@@]43CO)[C@@]1(O)CC[C@@H]2c1ccc(=O)oc1,GI50,IGROV-1,16 nM
same,GI50,Hs-578T,6 nM
same,GI50,BT-549,4 nM
same,GI50,SW-620,17 nM
same,GI50,SNB-75,23 nM
same,GI50,NCI-H522,6 nM
same,GI50,LOX IMVI,18 nM
same,GI50,A549,4 nM
same,GI50,SR,24 nM
same,GI50,SK-MEL-28,37 nM
same,GI50,NCI/ADR-RES,8 nM
same,GI50,HOP-92,22 nM
same,GI50,ACHN,5 nM
same,GI50,HT-29,15 nM
same,GI50,CAKI-1,8 nM
same,GI50,UACC-62,25 nM
same,GI50,A498,12 nM
same,GI50,K562,30 nM
same,GI50,Malme-3M,17 nM
same,GI50,SK-MEL-2,45 nM
same,GI50,HCC 2998,52 nM
same,GI50,KM12,29 nM
same,GI50,786-0,7 nM
same,GI50,MOLT-4,7 nM
same,GI50,OVCAR-8,15 nM
same,GI50,TK-10,8 nM
same,GI50,T47D,24 nM
same,GI50,MDA-MB-468,44 nM
same,GI50,SF-268,7 nM
same,GI50,SF-539,3 nM
same,GI50,UACC-257,42 nM
same,GI50,MCF7,9 nM
same,GI50,U-251,25 nM
same,GI50,PC-3,13 nM
same,GI50,NCI-H23,8 nM
same,GI50,HCT-116,5 nM
same,GI50,M14,31 nM
same,GI50,SK-MEL-5,20 nM
same,GI50,NCI-H460,6 nM
same,GI50,RXF 393,5 nM
same,GI50,HCT-15,17 nM
same,GI50,HOP-62,6 nM
same,GI50,NCI-H322M,7 nM
same,GI50,SN12C,6 nM
same,GI50,OVCAR-5,17 nM
same,GI50,NCI-H226,22 nM
same,GI50,OVCAR-3,8 nM
same,GI50,UO-31,9 nM
same,GI50,MDA-MB-435,33 nM
same,GI50,COLO 205,43 nM
same,GI50,HL-60,7 nM
same,GI50,SK-OV-3,51 nM
same,GI50,CCRF-CEM,7 nM
same,GI50,SNB-19,48 nM
same,GI50,MDA-MB-231,53 nM
same,GI50,DU-145,6 nM
same,GI50,SF-295,11 nM
C[C@]12CC[C@@H](O)C=C1CC[C@@H]1[C@@H]2[C@@H](O)C[C@]2(C)[C@@H](c3ccc(=O)oc3)CC[C@]12O,GI50,IGROV-1,3690 nM
same,GI50,Hs-578T,831 nM
same,GI50,BT-549,658 nM
same,GI50,SW-620,1690 nM
same,GI50,SNB-75,2170 nM
same,GI50,NCI-H522,639 nM
same,GI50,LOX IMVI,3690 nM
same,GI50,A549,649 nM
same,GI50,SR,189 nM
same,GI50,SK-MEL-28,3470 nM
same,GI50,NCI/ADR-RES,2230 nM
same,GI50,HOP-92,2100 nM
same,GI50,ACHN,475 nM
same,GI50,CAKI-1,2470 nM
same,GI50,UACC-62,3310 nM
same,GI50,RPMI-8226,2540 nM
same,GI50,A498,1770 nM
same,GI50,K562,644 nM
same,GI50,Malme-3M,4350 nM
same,GI50,SK-MEL-2,3060 nM
same,GI50,HCC 2998,7850 nM
same,GI50,KM12,5000 nM
same,GI50,786-0,998 nM
same,GI50,MOLT-4,303 nM
same,GI50,OVCAR-8,2110 nM
same,GI50,TK-10,2980 nM
same,GI50,T47D,4710 nM
same,GI50,MDA-MB-468,10200 nM
same,GI50,SF-268,656 nM
same,GI50,SF-539,1490 nM
same,GI50,UACC-257,3450 nM
same,GI50,MCF7,3530 nM
same,GI50,PC-3,1880 nM
same,GI50,NCI-H23,2230 nM
same,GI50,HCT-116,532 nM
same,GI50,M14,3380 nM
same,GI50,SK-MEL-5,3030 nM
same,GI50,NCI-H460,573 nM
same,GI50,RXF 393,412 nM
same,GI50,HCT-15,4110 nM
same,GI50,HOP-62,1550 nM
same,GI50,NCI-H322M,2880 nM
same,GI50,SN12C,1070 nM
same,GI50,OVCAR-5,2840 nM
same,GI50,NCI-H226,7560 nM
same,GI50,OVCAR-3,739 nM
same,GI50,UO-31,2150 nM
same,GI50,MDA-MB-435,3350 nM
same,GI50,COLO 205,6050 nM
same,GI50,HL-60,273 nM
same,GI50,SK-OV-3,4240 nM
same,GI50,CCRF-CEM,502 nM
same,GI50,SNB-19,4970 nM
same,GI50,MDA-MB-231,8500 nM
same,GI50,DU-145,760 nM
same,GI50,SF-295,1750 nM

# Reference: ChEMBL document CHEMBL4837183, “Antiproliferative Bufadienolides from the Bulbs of Drimia altissima” (2021)
